# Results reported in patent US20120245229A1, “METHOD FOR TREATING NEUROPATHIC PAIN” (priority 2009, published 2012).
# Key:
# CRG-induced edema = experiment: Carrageenan paw edema (paw volume, plethysmometer); format: in vivo, mice; settings: intraplantar pretreatment; 4 h after CRG injection
# Method: Measurement of paw volume. Paw swelling (edema) after carrageenan injection was determined by water displacement plethysmometer (Ugo Basile, Italy). The Plethysmometer is a microcontrolled volume meter, specially designed for accurate measurement of the rat/mouse paw swelling. It consists of a water filled Perspex cell into which the paw is dipped. A transducer of original design records small differences in water level, caused by volume displacement.
# inflammatory pain = experiment: Inflammatory pain models induced by formalin or CFA (summary statements); format: in vivo, mouse
# Method: (§1) Animals and pain models. Adult CD1 mice (male, 25-32 g) were used for most experiments. Knockout mice were used lacking TNFR1/II (Tnfrsf1a/1b^−/−) and TRPV1 (Trpv1^−/−) and C57BL/6 wild-type control mice, all from Jackson, for some experiments. All animal procedures performed in this study were approved by the Harvard Medical Area Standing Committee on Animals. 20 μl of diluted formalin (5%), carrageenan (CRG, 1%), or complete Freund's adjuvant (CFA) were injected into the plantar surface of a hindpaw to produce acute, persistent, or chronic inflammatory pain, respectively. Postoperative pain was also produced through hindpaw incision^36 and neuropathic pain by ligation of the spinal nerve^37.
# (§2) Behavioral analysis. Mice were habituated in the testing environment for two days and performed behavioral testing in a blinded manner. Formalin-evoked spontaneous inflammatory pain was assessed by measuring duration (seconds) animals spent on licking/flinching the affected paws every 5 min for 45 min. Capsaicin-induced spontaneous pain was aslo assessed for 10 min. For testing mechanical sensitivity, mice were put in boxes on an elevated metal mesh floor and stimulated hindpaw with a series of von Frey hairs with logarithmically incrementing stiffness (0.02-2.56 grams, Stoelting), presented perpendicular to the plantar surface. It was determined the 50% paw withdrawal threshold using Dixon's up-down method^40. For testing heat sensitivity, mice were placed in plastic boxes and tested heat sensitivity using Hargreaves radiant heat apparatus (IITC Life Science Inc.). The basal paw withdrawal latency was adjusted to 9-12 seconds and set a cut-off of 20 seconds to prevent tissue damage. The percent maximal possible antinociceptive effect (% M.P.E) was calculated using the equation % M.P.E.=[(PL−BL2)/(BL1−BL2)]×100. BL1, baseline latency before inflammation; BL2, baseline latency after inflammation but before drug injection; PL, latency post drug injection.
# [1] = test system: SNL-induced neuropathic pain; experiment: Neuropathic pain model induced by spinal nerve ligation (SNL); format: in vivo, mice
# Method: as §1, §2
# ERK phosphorylation = ERK phosphorylation (pERK) in superficial dorsal horn neurons of spinal slices; format: cell-based, mice; settings: TNF-α 10 ng/ml, 5 min
# Method: Spinal cord slice preparation. As previously reported^39, a portion of the lumbar spinal cord (L4-L5) was removed from young mice (3-4 week old) under urethane anesthesia (1.5-2.0 g/kg, i.p.) and transverse spinal cord slices were cut (600 μm) on a vibrating microslicer. The slices were perfused with Kreb's solution (8 ml/min) for >2 h prior to experiments. Some slices were stimulated with TNF-α (10 ng/ml, 5 min), the slices were fixed with 4% paraformaldehyde for 1 h, and processed pERK immunohistochemistry using thin sections (15 μm)^13.
# Resolvins were also used for intraplantar injection. RvD1 or RvE1 was injected into the plantar surface of a hindapaw [20 ng, 20 μl , in 1% ethanol (Supplementary FIG. 5a, 5b) or in 10% ethanol (FIG. 2e, Supplementary FIG. 1d)]. […]
# PERK immunohistochemistry in the spinal cord: Transverse spinal cord slices (600 μm) were cut on a vibrating microslicer. […] The stained sections were examined with a Nikon fluorescence microscope, and images were captured with a CCD Spot camera. The number of pERK-immunoreactive cells in the superficial dorsal horn (laminae I-III) was quantified in 5 spinal cord sections from each slice and averaged for that slice, and 4-5 slices from separate animals were included for data analysis^12.
# [2] = test system: formalin-induced inflammatory pain; experiment: Formalin-induced spontaneous inflammatory pain (licking/flinching duration); format: in vivo, mice
# Method: as §1
# Reagents and administration. RvE1 and RvD1 were suspended in 1% or 10% ethanol as vehicle for investigating acute (<1 h) and persistent (1-6 h) effects of resolvins on inflammatory pain. The reagents (10 μl) were delivered to the cerebral spinal fluid via intrathecal injection made by a spinal cord puncture between the L5 and L6 level with a 30G needle^38.
# as §2
# Intrathecal injection. To avoid systemic effects of drugs and target spinal mechanisms, drugs were delivered into cerebral spinal fluid (CSF) space around lumbosacral spinal cord via intrathecal (i.t.) administration. Spinal cord puncture was made with a 30G needle between the L5 and L6 level to deliver the reagents (10 μl) to the cerebral spinal fluid (Hylden and Wilcox, 1980)^5. […] In addition to spinal cord cells, intrathecal drug administration also affects DRG cells^6,7.
# Intrathecal injection: DHA and EPA (Cayman Chemical, 10 μg, prepared in 1% ethanol), COX-2 inhibitor NS-398 (Sigma, 0.1, 1, and 10 μg, prepared in 1% ethanol in FIG. 1a-c or in 10% ethanol in FIG. 2c), morphine (Sigma, 10 to 500 ng, prepared in 1% ethanol in FIG. 1a-c), naloxone (Sigma, 2 μg, prepared in 1% ethanol), pertussis toxin (Tocris Bioscience, 0.2 μg, prepared in saline), chemerin (R & D Systems, 0.45 to 100 ng, prepared in 1% ethanol), TNF-α (R & D Systems, 20 ng, prepared in saline), and capsaicin (Sigma, 0.5 μg in 10 μl, prepared in 1% DMSO) were delivered. To examine whether pretreatment of RvE1 attenuated TNF-α-induced persistent hyperalgesia at 1, 3, and 24 h, RvE1 and TNF-α were mixed and injected at the same time (FIG. 3c). To examine whether pretreatment of RvE1 attenuates capsaicin-induced acute spontaneous pain, RvE1 and capsaicin were mixed and injected at the same time (FIG. 3f).
smiles,measurement,setting,value
"CC[C@@H](O)/C=C/C=C\C[C@@H](O)/C=C/C=C/C=C\[C@@H](O)CCCC(=O)O [RvE1, 5S,12R,18R-trihydroxyeicosapentaenoic acid]",CRG-induced edema (paw volume),CRG-induced edema,reducing
same,pain-like behaviors,inflammatory pain,potently inhibit
same,SNL-induced heat hyperalgesia,"[1]; 10 ng, i.t., one day after spinal nerve ligation",reduces SNL-induced heat hyperalgesia
same,nerve injury-induced hyperalgesia,[1]; neuropathic pain model induced by spinal nerve ligation,potently attenuate
same,TNF-α-induced ERK phosphorylation in superficial dorsal horn neurons,ERK phosphorylation,reduced the phosphorylation
same,"effective dose range compared with morphine and NS-398, formalin 2nd phase","[2]; intrathecal, dose response curve FIG. 1c",much lower than that of either morphine or the COX-2 inhibitor NS-398
same,"formalin-induced pain behavior, 1st phase","[2]; preemptive intrathecal injection, RvE1 0.3 and 1.0 ng",not the 1st phase
same,"formalin-induced pain behavior, 2nd phase","[2]; preemptive intrathecal injection, RvE1 0.3 and 1.0 ng, morphine 10 to 500 ng, NS-398 0.1, 1, and 10 μg, chemerin 0.45 to 100 ng",reduced
